# Laboratory results published in patent US6358885B1, “Substituted phenylheterocyclic herbicides” (Mississippi State University, priority 1992, dated 2002).
# Legend:
# sugar beet = assay: Test C preemergence/postemergence greenhouse plant response rating 0 to 100; type: in vivo, Beta vulgaris; settings: POSTEMERGENCE; for Plant response rating, Sugar beet: 0 to 100 scale
# In short: (§1)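 Compounds in non-phytotoxic solvent applied preemergence to sandy loam one day after planting, postemergence at the 1–4 leaf stage, or to ~2.5 cm floodwater over silt loam.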
# velvetleaf = assay: Test B preemergence/postemergence greenhouse plant response rating 0 to 10; type: in vivo, Abutilon theophrasti; settings: 0 to 10 scale
# In short: (§2)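 Postemergence treatment of plants two to eighteen cm tall ran alongside preemergence treatment of planted seed, each using compound in a non-phytotoxic solvent.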
# wild buckwheat = assay: Test C preemergence/postemergence greenhouse plant response rating 0 to 100; type: in vivo, Polygonum convolvulus; settings: POSTEMERGENCE; for Plant response rating, Wild buckwheat: 0 to 100 scale
# In short: as §1
# soybean [1] = assay: as above; type: in vivo, Glycine max; settings: POSTEMERGENCE; for Plant response rating, Soybean: 0 to 100 scale
# In short: as §1
# soybean [2] = assay: Test B preemergence/postemergence greenhouse plant response rating 0 to 10; type: in vivo, Glycine max; settings: 0 to 10 scale
# In short: as §2
# barley [3] = assay: as above; type: in vivo, Hordeum vulgare; settings: 0 to 10 scale
# In short: as §2
# lambsquarters [4] = assay: as above; type: in vivo, Chenopodium album; settings: 0 to 10 scale
# In short: as §2
# blackgrass = assay: as above; type: in vivo, Alopecurus myosuroides; settings: 0 to 10 scale
# In short: as §2
# chickweed = assay: Test C preemergence/postemergence greenhouse plant response rating 0 to 100; type: in vivo, Stellaria media; settings: POSTEMERGENCE; for Plant response rating, Chickweed: 0 to 100 scale
# In short: as §1
# crabgrass = assay: Test B preemergence/postemergence greenhouse plant response rating 0 to 10; type: in vivo, Digitaria spp.; settings: 0 to 10 scale
# In short: as §2
# purple nutsedge = assay: as above; type: in vivo, Cyperus rotundus; settings: 0 to 10 scale
# In short: as §2
# barley [5] = assay: Test C preemergence/postemergence greenhouse plant response rating 0 to 100; type: in vivo, Hordeum vulgare; settings: POSTEMERGENCE; for Plant response rating Barley Igri: 0 to 100 scale
# In short: as §1
# rape = assay: Test B preemergence/postemergence greenhouse plant response rating 0 to 10; type: in vivo, Brassica napus; settings: 0 to 10 scale
# In short: as §2
# pigweed = assay: Test C preemergence/postemergence greenhouse plant response rating 0 to 100; type: in vivo, Amaranthusretroflexus; settings: POSTEMERGENCE; for Plant response rating Pigweed: 0 to 100 scale
# In short: as §1
# ryegrass = assay: as above; type: in vivo, Lolium multiflorum; settings: POSTEMERGENCE
# In short: as §1
# giant foxtail = assay: Test B preemergence/postemergence greenhouse plant response rating 0 to 10; type: in vivo, Setaria faberii; settings: 0 to 10 scale
# In short: as §2
# cheatgrass = assay: as above; type: in vivo, Bromus secalinus; settings: 0 to 10 scale
# In short: as §2
# lambsquarters [6] = assay: Test C preemergence/postemergence greenhouse plant response rating 0 to 100; type: in vivo, Chenopodium album; settings: POSTEMERGENCE; for Plant response rating Lambsquarters: 0 to 100 scale
# In short: as §1
smiles,measurement,setting,value
CC(C)OC(=O)COc1cc(-c2nn3c(c2Cl)CCCC3)c(F)cc1Cl [Compound 39],"Plant response rating, Sugar beet",sugar beet; 62 g/ha,100
same,"Plant response rating, Sugar beet",sugar beet; 125 g/ha,100
same,"Plant response rating (0 to 100), Sugar beet",sugar beet; Rate 16 g/ha,100
same,"Plant response rating (0 to 100), Sugar beet",sugar beet; Rate 31 g/ha,100
same,"Plant response rating, Velvetleaf","velvetleaf; POSTEMERGENCE, Rate 50 g/ha",9
same,"Plant response rating, Velvetleaf","velvetleaf; PREEMERGENCE, Rate 50 g/ha",2
same,"Plant response rating, Velvetleaf","velvetleaf; Rate 200 g/ha, POSTEMERGENCE",10
same,"Plant response rating, Velvetleaf","velvetleaf; Rate 200 g/ha, PREEMERGENCE",4
same,"Plant response rating, Wild buckwheat",wild buckwheat; 62 g/ha,90
same,"Plant response rating, Wild buckwheat",wild buckwheat; 125 g/ha,100
same,"Plant response rating (0 to 100), Wild buckwheat",wild buckwheat; Rate 31 g/ha,70
same,"Plant response rating, Soybean",soybean [1]; 62 g/ha,60
same,"Plant response rating, Soybean",soybean [1]; 125 g/ha,70
same,"Plant response rating (0 to 100), Soybean",soybean [1]; Rate 16 g/ha,30
same,"Plant response rating (0 to 100), Soybean",soybean [1]; Rate 31 g/ha,50
same,"Plant response rating, Soybean","soybean [2]; POSTEMERGENCE, Rate 50 g/ha",2
same,"Plant response rating, Soybean","soybean [2]; PREEMERGENCE, Rate 50 g/ha",0
same,"Plant response rating, Soybean","soybean [2]; Rate 200 g/ha, POSTEMERGENCE",4
same,"Plant response rating, Soybean","soybean [2]; Rate 200 g/ha, PREEMERGENCE",0
same,"Plant response rating, Barley","barley [3]; POSTEMERGENCE, Rate 50 g/ha",4
same,"Plant response rating, Barley","barley [3]; POSTEMERGENCE, Rate 200 g/ha",6
same,"Plant response rating, Barley","barley [3]; PREEMERGENCE, Rate 50 g/ha",0
same,"Plant response rating, Barley","barley [3]; Rate 200 g/ha, PREEMERGENCE",0
same,"Plant response rating, Lambsquarter","lambsquarters [4]; POSTEMERGENCE, Rate 50 g/ha",9
same,"Plant response rating, Lambsquarter","lambsquarters [4]; PREEMERGENCE, Rate 50 g/ha",10
same,"Plant response rating, Lambsquarter","lambsquarters [4]; Rate 200 g/ha, POSTEMERGENCE",10
same,"Plant response rating, Lambsquarter","lambsquarters [4]; Rate 200 g/ha, PREEMERGENCE",10
same,"Plant response rating, Blackgrass","blackgrass; POSTEMERGENCE, Rate 50 g/ha",4
same,"Plant response rating, Blackgrass","blackgrass; POSTEMERGENCE, Rate 200 g/ha",4
same,"Plant response rating, Blackgrass","blackgrass; PREEMERGENCE, Rate 50 g/ha",0
same,"Plant response rating, Blackgrass","blackgrass; Rate 200 g/ha, PREEMERGENCE",2
same,"Plant response rating, Chickweed",chickweed; 62 g/ha,40
same,"Plant response rating, Chickweed",chickweed; 125 g/ha,70
same,"Plant response rating (0 to 100), Chickweed",chickweed; Rate 16 g/ha,20
same,"Plant response rating (0 to 100), Chickweed",chickweed; Rate 31 g/ha,30
same,"Plant response rating, Crabgrass","crabgrass; POSTEMERGENCE, Rate 50 g/ha",5
same,"Plant response rating, Crabgrass","crabgrass; POSTEMERGENCE, Rate 200 g/ha",4
same,"Plant response rating, Crabgrass","crabgrass; PREEMERGENCE, Rate 50 g/ha",0
same,"Plant response rating, Crabgrass","crabgrass; Rate 200 g/ha, PREEMERGENCE",2
same,"Plant response rating, Nutsedge","purple nutsedge; POSTEMERGENCE, Rate 50 g/ha",5
same,"Plant response rating, Nutsedge","purple nutsedge; PREEMERGENCE, Rate 50 g/ha",0
same,"Plant response rating, Nutsedge","purple nutsedge; Rate 200 g/ha, POSTEMERGENCE",4
same,"Plant response rating, Nutsedge","purple nutsedge; Rate 200 g/ha, PREEMERGENCE",0
same,Plant response rating Barley Igri,barley [5]; 62 g/ha,30
same,Plant response rating Barley Igri,barley [5]; 125 g/ha,40
same,"Plant response rating (0 to 100), Barley Igri",barley [5]; Rate 16 g/ha,20
same,"Plant response rating (0 to 100), Barley Igri",barley [5]; Rate 31 g/ha,30
same,"Plant response rating, Rape","rape; POSTEMERGENCE, Rate 50 g/ha",5
same,"Plant response rating, Rape","rape; PREEMERGENCE, Rate 50 g/ha",8
same,"Plant response rating, Rape","rape; Rate 200 g/ha, POSTEMERGENCE",10
same,"Plant response rating, Rape","rape; Rate 200 g/ha, PREEMERGENCE",10
same,Plant response rating Pigweed,pigweed; 62 g/ha,100
same,Plant response rating Pigweed,pigweed; 125 g/ha,100
same,"Plant response rating (0 to 100), Pigweed",pigweed; Rate 16 g/ha,90
same,"Plant response rating (0 to 100), Pigweed",pigweed; Rate 31 g/ha,100
same,Plant response rating Ryegrass,"ryegrass; 125 g/ha, 0 to 100 scale",20
same,"Plant response rating (0 to 100), Ryegrass",ryegrass; Rate 16 g/ha,10
same,"Plant response rating (0 to 100), Ryegrass",ryegrass; Rate 31 g/ha,10
same,"Plant response rating, Giant foxtail","giant foxtail; POSTEMERGENCE, Rate 50 g/ha",4
same,"Plant response rating, Giant foxtail","giant foxtail; PREEMERGENCE, Rate 50 g/ha",5
same,"Plant response rating, Giant foxtail","giant foxtail; Rate 200 g/ha, POSTEMERGENCE",5
same,"Plant response rating, Giant foxtail","giant foxtail; Rate 200 g/ha, PREEMERGENCE",2
same,"Plant response rating, Cheatgrass","cheatgrass; POSTEMERGENCE, Rate 50 g/ha",4
same,"Plant response rating, Cheatgrass","cheatgrass; POSTEMERGENCE, Rate 200 g/ha",4
same,"Plant response rating, Cheatgrass","cheatgrass; PREEMERGENCE, Rate 50 g/ha",0
same,"Plant response rating, Cheatgrass","cheatgrass; Rate 200 g/ha, PREEMERGENCE",2
same,Plant response rating Lambsquarters,lambsquarters [6]; 62 g/ha,100
same,Plant response rating Lambsquarters,lambsquarters [6]; 125 g/ha,100
same,"Plant response rating (0 to 100), Lambsquarters",lambsquarters [6]; Rate 16 g/ha,70
same,"Plant response rating (0 to 100), Lambsquarters",lambsquarters [6]; Rate 31 g/ha,100
